Measurements as given in PubChem BioAssay AID328 (DTP/NCI, 2004).
Where “and” joins values, the source holds several entries; their conditions need not be identical. Equal entries are not always repeated. Inconclusive results and toxic doses are left out.

Tested on: BDF1 mice, P388 leukemia ip, median survival T/C
Assay: NCI In Vivo Anticancer Drug Screen. Data for tumor model P388 Leukemia (intraperitoneal) in B6D2F1 (BDF1) mice
Details: endpoint: median survival time, higher = longer survival
In short: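 Compound-treated tumour-bearing mice were compared with vehicle-treated controls. Survival was recorded, and the value is the treated-group measurement divided by the control-group measurement (T/C).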

[1] = dose: 100.0 mg/kg/injection, schedule: Q01DX009 (ip), vehicle: saline
[2] = dose: 200.0 mg/kg/injection, schedule: Q01DX009 (ip), vehicle: saline
[3] = dose: 400.0 mg/kg/injection, schedule: Q01DX009 (ip), vehicle: saline with Tween-80
[4] = dose: 50.0 mg/kg/injection, schedule: Q01DX009 (ip), vehicle: saline with Tween-80
[5] = dose: 100.0 mg/kg/injection, schedule: Q01DX009 (ip), vehicle: saline with Tween-80
[6] = dose: 100.0 mg/kg/injection, schedule: Q04DX003 (ip), vehicle: saline with Tween-80
[7] = dose: 200.0 mg/kg/injection, schedule: Q01DX009 (ip), vehicle: saline with Tween-80
[8] = dose: 200.0 mg/kg/injection, schedule: Q04DX003 (ip), vehicle: saline with Tween-80
[9] = dose: 50.0 mg/kg/injection, schedule: Q01DX009 (ip), vehicle: saline
[10] = dose: 0.75 mg/kg/injection, schedule: Q01DX010 (ip), vehicle: saline
[11] = dose: 1.5 mg/kg/injection, schedule: Q01DX010 (ip), vehicle: saline
[12] = dose: 6.0 mg/kg/injection, schedule: Q01DX010 (ip), vehicle: saline
[13] = dose: 12.5 mg/kg/injection, schedule: Q01DX009 (ip), vehicle: saline with Tween-80
[14] = dose: 25.0 mg/kg/injection, schedule: Q01DX009 (ip), vehicle: saline with Tween-80
[15] = dose: 50.0 mg/kg/injection, schedule: Q04DX003 (ip), vehicle: saline with Tween-80

O=C(CCCCN1CCc2[nH]c3ccc(F)cc3c2C1)c1ccc(F)cc1
T/C (dose: 100.0 mg/kg/injection, schedule: Q01DX001 (ip), vehicle: Klucel (hydroxypropylcellulose) (HPC)): 116 % of control | T/C (dose: 200.0 mg/kg/injection, schedule: Q01DX001 (ip), vehicle: Klucel (hydroxypropylcellulose) (HPC)): 100 % of control

CCCCCCCCCCCC(c1ccccc1)[N+](C)(C)C (stereo not drawn)
T/C (dose: 1.0 mg/kg/injection, schedule: Q01DX010 (ip), vehicle: saline): 100 % of control | T/C (dose: 2.0 mg/kg/injection, schedule: Q01DX010 (ip), vehicle: saline): 104 % of control | T/C (dose: 4.0 mg/kg/injection, schedule: Q01DX010 (ip), vehicle: saline): 116 % of control | T/C (dose: 4.0 mg/kg/injection, schedule: Q04DX003 (ip), vehicle: saline): 113 % of control | T/C (dose: 8.0 mg/kg/injection, schedule: Q04DX003 (ip), vehicle: saline): 118 % of control | T/C (dose: 16.0 mg/kg/injection, schedule: Q04DX003 (ip), vehicle: saline): 100 % of control

C=C(C(=O)OC1C/C(C)=C/C(O)C/C(C)=C/C2OC(=O)C(=C)C21)C(C)O (stereo not drawn)
T/C (dose: 100.0 mg/kg/injection, schedule: Q04DX002 (ip), vehicle: Klucel (hydroxypropylcellulose) (HPC)): 120 % of control

COC(=O)C1CCCCC1C(=O)OC (stereo not drawn)
T/C [1]: 90 % of control | T/C [2]: 95 % of control | T/C (dose: 264.0 mg/kg/injection, schedule: Q01DX009 (ip), vehicle: saline with Tween-80): 109 % of control | T/C [3]: 109 % of control

C[N+]1(C2CCC3CCC2C3O)CCCCC1 (stereo not drawn)
T/C (dose: 100.0 mg/kg/injection, schedule: Q04DX003 (ip), vehicle: saline): 90 % of control | T/C (dose: 200.0 mg/kg/injection, schedule: Q04DX003 (ip), vehicle: saline): 122 % of control

CCC[CH2][Sn]([Cl])([CH2]CCC)[S]C(=S)NCCNC(=S)[S][Sn]([Cl])([CH2]CCC)[CH2]CCC
T/C (dose: 1.56 mg/kg/injection, schedule: Q04DX003 (ip), vehicle: Klucel (hydroxypropylcellulose) (HPC)): 110 % of control | T/C (dose: 3.12 mg/kg/injection, schedule: Q01DX009 (ip), vehicle: Klucel (hydroxypropylcellulose) (HPC)): 105 % of control | T/C (dose: 3.13 mg/kg/injection, schedule: Q04DX003 (ip), vehicle: Klucel (hydroxypropylcellulose) (HPC)): 124 % of control | T/C (dose: 6.25 mg/kg/injection, schedule: Q01DX009 (ip), vehicle: Klucel (hydroxypropylcellulose) (HPC)): 153 % of control | T/C (dose: 6.25 mg/kg/injection, schedule: Q04DX003 (ip), vehicle: Klucel (hydroxypropylcellulose) (HPC)): 154 % of control | T/C (dose: 12.5 mg/kg/injection, schedule: Q01DX009 (ip), vehicle: Klucel (hydroxypropylcellulose) (HPC)): 156 % of control and 158 % of control | T/C (dose: 12.5 mg/kg/injection, schedule: Q04DX003 (ip), vehicle: Klucel (hydroxypropylcellulose) (HPC)): 100 % of control and 105 % of control | T/C (dose: 25.0 mg/kg/injection, schedule: Q01DX009 (ip), vehicle: Klucel (hydroxypropylcellulose) (HPC)): 194 % of control

CSc1ncnc2c1ncn2CCCl
T/C [4]: 91 % of control | T/C [5]: 87 % of control | T/C [6]: 95 % of control | T/C [7]: 91 % of control | T/C [8]: 100 % of control

CCOC(=O)c1cc2ccccc2n1-c1ccccc1
T/C [3]: 103 % of control

CCCCOC(=O)c1ccc(OCCOc2ccc(C(C)(C)CC(C)(C)C)cc2)c(NC(=O)CC(=O)c2cccc(N)c2)c1
T/C (dose: 6.25 mg/kg/injection, schedule: Q04DX003 (ip), vehicle: saline sonified): 100 % of control | T/C (dose: 12.5 mg/kg/injection, schedule: Q04DX003 (ip), vehicle: saline sonified): 91 % of control

CCN1C(=O)CSC1=S
T/C (dose: 62.5 mg/kg/injection, schedule: Q01DX010 (ip), vehicle: saline): 109 % of control | T/C (dose: 125.0 mg/kg/injection, schedule: Q01DX010 (ip), vehicle: saline): 109 % of control | T/C (dose: 250.0 mg/kg/injection, schedule: Q01DX010 (ip), vehicle: saline): 90 % of control

C=C1C(=O)OC2CC3(C)CC(O)C(OC(C)=O)C(=C)C3CC12 (stereo not drawn)
T/C (dose: 25.0 mg/kg/injection, schedule: Q01DX009 (ip), vehicle: saline): 104 % of control | T/C [9]: 101 % of control

C=CCCCC[P+](c1ccccc1)(c1ccccc1)c1ccccc1
T/C [10]: 110 % of control | T/C [11]: 115 % of control and 120 % of control | T/C [12]: 152 % of control | T/C (dose: 12.0 mg/kg/injection, schedule: Q01DX010 (ip), vehicle: saline): 110 % of control

S=P(N1CC1)(N1CC1)N1CC1
T/C (dose: 0.19 mg/kg/injection, schedule: Q01DX009 (ip), vehicle: saline): 114 % of control | T/C [10]: 90 % of control | T/C (dose: 1.0 mg/kg/injection, schedule: Q01DX001 (oral), vehicle: saline): 109 % of control | T/C (dose: 1.5 mg/kg/injection, schedule: Q01DX009 (ip), vehicle: saline): 121 % of control | T/C [11]: 90 % of control and 109 % of control | T/C (dose: 3.0 mg/kg/injection, schedule: Q01DX009 (ip), vehicle: saline): 112 % of control | T/C (dose: 6.0 mg/kg/injection, schedule: Q01DX009 (ip), vehicle: saline): 91 % of control and 93 % of control and 206 % of control | T/C [12]: 109 % of control and 110 % of control | T/C (dose: 12.0 mg/kg/injection, schedule: Q01DX009 (ip), vehicle: saline): 111 % of control

O=C(O)c1ccc2c3c(cccc13)CC2
T/C (dose: 25.0 mg/kg/injection, schedule: Q01DX001 (ip), vehicle: saline sonified): 100 % of control | T/C (dose: 50.0 mg/kg/injection, schedule: Q01DX001 (ip), vehicle: saline sonified): 100 % of control | T/C (dose: 100.0 mg/kg/injection, schedule: Q01DX001 (ip), vehicle: saline sonified): 104 % of control

CCCCn1cnc2c(=S)nc(N)[nH]c21
T/C [13]: 109 % of control | T/C [14]: 118 % of control | T/C (dose: 33.0 mg/kg/injection, schedule: Q04DX003 (ip), vehicle: saline with Tween-80): 100 % of control and 118 % of control | T/C [4]: 118 % of control | T/C [15]: 108 % of control and 118 % of control | T/C (dose: 75.0 mg/kg/injection, schedule: Q04DX003 (ip), vehicle: saline with Tween-80): 122 % of control

CCCCCCCCSP(=S)(N1CC1)N1CC1
T/C [5]: 90 % of control | T/C [6]: 88 % of control | T/C [7]: 100 % of control | T/C [8]: 94 % of control | T/C [3]: 95 % of control | T/C (dose: 400.0 mg/kg/injection, schedule: Q04DX003 (ip), vehicle: saline with Tween-80): 88 % of control

O=c1[nH]cnc2c(C3OC(CO)C(O)C3O)[nH]nc12 (stereo not drawn)
T/C (dose: 10.0 mg/kg/injection, schedule: Q01DX009 (ip), vehicle: saline): 91 % of control | T/C (dose: 20.0 mg/kg/injection, schedule: Q01DX009 (ip), vehicle: saline): 100 % of control | T/C (dose: 40.0 mg/kg/injection, schedule: Q01DX009 (ip), vehicle: saline): 91 % of control

C[C@@H]1C[C@@]2(C)[C@@H](CC[C@@H]3[C@@H]2CC[C@]2(C)[C@@H](O)CC[C@@H]32)C[C@@H]1O
T/C (dose: 220.0 mg/kg/injection, schedule: Q01DX010 (sc), vehicle: steriod suspending solution): 100 % of control | T/C (dose: 440.0 mg/kg/injection, schedule: Q01DX010 (sc), vehicle: steriod suspending solution): 115 % of control

Cc1ccc(CC(=O)O)cc1C
T/C (dose: 44.0 mg/kg/injection, schedule: Q04DX003 (ip), vehicle: saline with Tween-80): 109 % of control | T/C (dose: 66.0 mg/kg/injection, schedule: Q04DX003 (ip), vehicle: saline with Tween-80): 104 % of control | T/C [6]: 104 % of control | T/C (dose: 150.0 mg/kg/injection, schedule: Q04DX003 (ip), vehicle: saline with Tween-80): 104 % of control

CC(C)CC(CC(C)C)NCC(C)OC(=O)c1ccc(N)cc1 (stereo not drawn)
T/C (dose: 6.25 mg/kg/injection, schedule: Q01DX009 (ip), vehicle: saline with Tween-80): 104 % of control | T/C (dose: 6.25 mg/kg/injection, schedule: Q04DX003 (ip), vehicle: saline with Tween-80): 107 % of control | T/C [13]: 93 % of control | T/C (dose: 12.5 mg/kg/injection, schedule: Q04DX003 (ip), vehicle: saline with Tween-80): 114 % of control | T/C [14]: 104 % of control | T/C (dose: 25.0 mg/kg/injection, schedule: Q04DX003 (ip), vehicle: saline with Tween-80): 114 % of control | T/C [15]: 114 % of control

COCCCC/C(=N\OCCN)c1ccc(C(F)(F)F)cc1
T/C [9]: 103 % of control | T/C [1]: 112 % of control | T/C [2]: 108 % of control
